Experimental findings from article PMC8198181, “Evaluation of Substituted N-Phenylpiperazine Analogs as D3 vs. D2 Dopamine Receptor Subtype Selective Ligands” (Molecules, 2021) are described below.

In this assay the target is T1, human 5-HT1A receptor (Homo sapiens, UniProt P08908).
T1 construct: expressed in transfected cells; host or cells: CHO-K1
T1 sequence (P08908 1-422): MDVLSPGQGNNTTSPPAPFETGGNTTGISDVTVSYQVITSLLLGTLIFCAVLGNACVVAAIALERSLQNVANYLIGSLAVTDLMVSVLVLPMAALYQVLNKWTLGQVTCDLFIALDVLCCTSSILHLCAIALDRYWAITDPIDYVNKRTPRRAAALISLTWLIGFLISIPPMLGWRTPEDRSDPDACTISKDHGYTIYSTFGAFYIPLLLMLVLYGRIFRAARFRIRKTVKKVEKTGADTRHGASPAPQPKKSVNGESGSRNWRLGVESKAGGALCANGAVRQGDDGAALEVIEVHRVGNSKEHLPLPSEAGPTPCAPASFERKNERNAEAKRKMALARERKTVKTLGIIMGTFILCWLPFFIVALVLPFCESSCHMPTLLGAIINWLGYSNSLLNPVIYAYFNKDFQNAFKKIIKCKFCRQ
In words: 5-HT1A receptor binding ([3H]8-hydroxy-DPAT displacement, CHO-K1 membranes). The method, then:
Because the 5-HT1A receptor is a commonly observed off-site binding site for benzamide N-phenylpiperazine ligands, compounds were simultaneously screened for binding of our compounds at the human 5-HT1A receptor expressed in CHO-K1 cells, using the radioligand [^3H]-8-hydroxy-DPAT (8-OH-DPAT) (Table 2). Based upon the analysis of the displacement assay shown in Table 2, the orthosteric compounds 3c–f appeared to bind with low affinity at human 5-HT1A receptors.
10 μg of membranes from CHO-K1 cells expressing the human 5-HT1A receptor were suspended in 50 mM Tris-HCl, 10 mM MgSO4, 0.5 mM EDTA, and 0.1% (w/v) ascorbic acid, pH 7.4 and test ligands (91 nM for single point radioligand displacement assay and 1 nM to 1 μM for full competition assay) were incubated with 0.25 nM [^3H]8-hydroxy-DPAT (PerkinElmer, Boston, MA, USA) for 60 min at room temperature. The nonspecific binding was determined using 10 μM metergoline (Sigma, St. Louis, MO, USA). After incubation, the bound ligands were filtered using an M-24 Brandel filtration system (Brandel, Gaithersburg, MD, USA), collected on glass fiber papers (Whatman grade 934-AH, GE Healthcare Bio-Sciences, Pittsburgh, PA, USA), and the radioactivity was quantitated using a MicroBeta2 Microplate scintillation counter 2450 (PerkinElmer, Boston, MA, USA).

Molecules are shown by their SMILES.

Consider `O=C(NCCCCN1CCN(c2ccccc2F)CC1)c1ccc(-c2ccsc2)cc1` [Compound 6a], for which the “5-HT1A affinity lower than D3 affinity” value (5-HT1A Ki vs. D3 Ki) was “approximately 140 fold”. For the same compound, the Ki (usually the dissociation constant of the complex between target and ligand, obtained from inhibition or displacement) (full competition curve, [3H]-8-hydroxy-DPAT, at least three experiments, read-out: Ki at 5-HT1A receptor) was 199 nM. Moreover, for the setting “radioligand displacement assessment at 91 nM”, the “5-HT1A receptor affinity/displacement in words” value is recorded as “decreased binding affinity”. Besides, for the setting “single point displacement of [3H]-8-hydroxy-DPAT, 91 nM test compound, CHO-K1, ± S.E.M., n ≥ 3”, the inhibition (usually the change of the read-out against control, counted positive when it falls) at 0.091 µM was -3.3 ± 15.1%.
